Laboratory results as given in ChEMBL document CHEMBL1201862, “PubChem BioAssay data set” (2004).
“And” between values parts separate entries of the source, which are not always exact repeats. Equal entries are not always repeated.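 Protocol summary: plate cells (96-well), add compound at 5 concentrations, incubate 48 h, interpolate endpoints linearly. GI50: concentration for 50% inhibition of growth.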 The source made the active and inactive calls. No stated cut-off is given here; in the data, active = GI50 up to about 1.1 µM and inactive = higher.

Legend:
Test in all cases: NCI-60 cell line screen, 48 h
A549 = test system: A549
ACHN = test system: ACHN
KM12 = test system: KM12
MDA-MB-435 = test system: MDA-MB-435
MOLT-4 = test system: MOLT-4
NCI-H226 = test system: NCI-H226
OVCAR-3 = test system: OVCAR-3
OVCAR-5 = test system: OVCAR-5
PC-3 = test system: PC-3
RXF 393 = test system: RXF 393
SF-539 = test system: SF-539
SK-MEL-28 = test system: SK-MEL-28
SK-OV-3 = test system: SK-OV-3
SN12C = test system: SN12C
SNB-75 = test system: SNB-75
SW-620 = test system: SW-620
UACC-257 = test system: UACC-257
UO-31 = test system: UO-31
HOP-92 = test system: HOP-92
M14 = test system: M14

Measured: GI50

O=C(O)C12C3CCC(O3)C1(C(=O)O)C1CCC2O1 (centres undefined)
inactive: A549 > 100 µM | ACHN > 100 µM | KM12 > 100 µM | MDA-MB-435 > 100 µM | MOLT-4 > 100 µM | NCI-H226 > 100 µM | OVCAR-3 > 100 µM | OVCAR-5 > 100 µM | PC-3 > 100 µM | RXF 393 > 100 µM and 53.6 µM | SF-539 > 100 µM | SK-MEL-28 > 100 µM | SK-OV-3 > 100 µM | SN12C > 100 µM | SNB-75 > 100 µM | SW-620 > 100 µM | UACC-257 > 100 µM | UO-31 > 100 µM

CCCCCCCCCCCCOCC(COP(=O)(O)OCCN=[N+]=[N-])OC(=O)CCCCCCCCCCC (centres undefined)
inactive: A549 > 100 µM | ACHN > 100 µM | HOP-92 > 100 µM | KM12 > 100 µM | M14 > 100 µM | MDA-MB-435 > 100 µM | MOLT-4 > 100 µM | OVCAR-3 > 100 µM | OVCAR-5 > 100 µM | PC-3 > 100 µM | RXF 393 > 100 µM | SF-539 > 100 µM | SK-MEL-28 > 100 µM | SK-OV-3 > 100 µM | SN12C > 100 µM | SW-620 > 100 µM | UO-31 > 100 µM

Cc1cc2[nH]c3c(C#N)c(-c4ccccc4)c(/N=N/c4ccc(F)cc4)c(=O)n3c2cc1C
inactive: A549 68.1 µM | ACHN > 100 µM | M14 > 100 µM | MDA-MB-435 > 100 µM | NCI-H226 > 100 µM | OVCAR-3 3.21 µM | OVCAR-5 > 100 µM | PC-3 > 100 µM | RXF 393 > 100 µM | SF-539 > 100 µM | SK-MEL-28 > 100 µM | SK-OV-3 > 100 µM | SN12C > 100 µM | SNB-75 36.2 µM | SW-620 > 100 µM | UACC-257 > 100 µM | UO-31 > 100 µM

O=C(O)[C@@H]1CCS(=O)(=O)N1
inactive: A549 > 100 µM | ACHN > 100 µM | KM12 > 100 µM | M14 > 100 µM | MDA-MB-435 > 100 µM | MOLT-4 > 100 µM | OVCAR-3 > 100 µM | OVCAR-5 > 100 µM | PC-3 > 100 µM | RXF 393 > 100 µM | SF-539 > 100 µM | SK-MEL-28 > 100 µM | SK-OV-3 > 100 µM | SN12C > 100 µM | SW-620 > 100 µM | UACC-257 > 100 µM

CCCCNC(=O)C1=C(C)NC(C)=C(C(=O)NCCCC)C1
inactive: A549 > 100 µM | ACHN > 100 µM | HOP-92 > 100 µM | KM12 > 100 µM | M14 > 100 µM | MDA-MB-435 > 100 µM | MOLT-4 > 100 µM | NCI-H226 > 100 µM | OVCAR-3 > 100 µM | OVCAR-5 > 100 µM | RXF 393 > 100 µM | SF-539 > 100 µM | SK-MEL-28 > 100 µM | SK-OV-3 > 100 µM | SN12C > 100 µM | SNB-75 49.8 µM | SW-620 > 100 µM | UACC-257 > 100 µM | UO-31 > 100 µM

O=C(N/N=C1\CCc2ccccc2C1)N/N=C1\CCc2ccccc2C1
inactive: A549 > 10 µM | ACHN > 10 µM | KM12 > 10 µM | M14 > 10 µM | MDA-MB-435 > 10 µM | MOLT-4 > 10 µM | NCI-H226 > 10 µM | OVCAR-3 > 10 µM | OVCAR-5 > 10 µM | PC-3 > 10 µM | RXF 393 > 10 µM | SN12C > 10 µM | SW-620 > 10 µM | UACC-257 > 10 µM | UO-31 > 10 µM

[O-][n+]1nc(N2CCOCC2)nc2ccccc21
inactive: A549 > 100 µM | ACHN > 100 µM | KM12 > 100 µM | M14 > 100 µM | MDA-MB-435 > 100 µM | MOLT-4 > 100 µM | NCI-H226 > 100 µM | OVCAR-5 > 100 µM | PC-3 > 100 µM | RXF 393 49.5 µM | SF-539 > 100 µM | SK-MEL-28 > 100 µM | SK-OV-3 > 100 µM | SN12C > 100 µM | SNB-75 > 100 µM | SW-620 > 100 µM | UACC-257 > 100 µM | UO-31 > 100 µM

[O-][S+]1CC[S+]([O-])CC[S+]([O-])CC1 (centres undefined)
inactive: A549 > 100 µM | HOP-92 > 100 µM | KM12 > 100 µM | M14 > 100 µM | MDA-MB-435 > 100 µM | MOLT-4 > 100 µM | OVCAR-3 > 100 µM | OVCAR-5 > 100 µM | PC-3 > 100 µM | SF-539 > 100 µM | SK-MEL-28 > 100 µM | SK-OV-3 > 100 µM | SN12C > 100 µM | SNB-75 > 100 µM | SW-620 > 100 µM | UACC-257 > 100 µM | UO-31 > 100 µM

Cc1cc(Cl)ccc1/N=N/C(=O)NNc1ccc(Cl)cc1C
inactive: A549 12.9 µM | ACHN 16.1 µM | M14 16.9 µM | MDA-MB-435 20.7 µM | MOLT-4 14 µM | NCI-H226 16.4 µM | OVCAR-3 17.2 µM | OVCAR-5 15.8 µM | PC-3 10.4 µM | SK-MEL-28 16.1 µM | SN12C 15.4 µM | SNB-75 15.6 µM | SW-620 15.9 µM | UACC-257 17.1 µM | UO-31 13 µM

COc1cc(CCCOC(=O)/C=C/c2ccc(O)c(O)c2)cc(O)c1O
inactive: A549 69.2 µM | ACHN > 100 µM | KM12 44.2 µM | M14 > 100 µM | MDA-MB-435 28.6 µM | MOLT-4 27.5 µM | NCI-H226 > 100 µM | OVCAR-3 42.1 µM | OVCAR-5 > 100 µM | PC-3 32.4 µM | RXF 393 73.6 µM | SF-539 28.4 µM | SK-MEL-28 58.3 µM | SK-OV-3 > 100 µM | SN12C 29.2 µM | SNB-75 35.2 µM | SW-620 18.8 µM | UACC-257 > 100 µM | UO-31 37.5 µM

O=C1N[C@H](C(=O)O)[C@@H](c2ccc(OCc3ccccc3)cc2)O1
inactive: A549 81.5 µM | ACHN 36.5 µM | KM12 > 100 µM | M14 > 100 µM | MDA-MB-435 > 100 µM | MOLT-4 > 100 µM | NCI-H226 24.9 µM | OVCAR-3 92.5 µM | OVCAR-5 > 100 µM | PC-3 > 100 µM | RXF 393 12.9 µM | SK-MEL-28 > 100 µM | SK-OV-3 44.1 µM | SN12C 45.1 µM | SNB-75 10.8 µM | SW-620 > 100 µM | UACC-257 > 100 µM | UO-31 > 100 µM
